In patent US20070025902A1, “RECOVERY OF FLUORINATED CARBOXYLIC ACID FROM ADSORBENT PARTICLES” (priority 2005, published 2007):
Marks after values point to notes of the source that are not given here.

Assay: Determination of bio-accumulation: urinary clearance pharmacokinetic study in rats
Conditions: oral gavage; for Compound-related Effects: clinical signs of toxicity and gross necropsy 96 hours post-dose
[1] = parent compound recovered in urine after 96 h, 73 micro Moles per kg body weight
[2] = renal elimination half-life of parent compound from urine, 73 micro Moles per kg body weight, exponential least squares curve fitting
[3] = 73 micro Moles per kg body weight
[4] = no parent compound in urine, based on elimination of the major metabolite C3F7—O—CHFCOO−, 73 micro Moles per kg

SMILES	% Recovery (96 h) [1]	T½ [2]	Compound-related Effects [3]	% Recovery (96 h) [4]	T½ (h) [4]	T½ (h) [2]
N.O=C(O)C(F)(F)OC(F)(F)C(F)(F)C(F)(F)OC(F)(F)F [Compound 1, CF3—O—(CF2)3—O—CF2—COONH4]	73%					
N.O=C(O)C(F)(F)OC(F)(F)OC(F)(F)F [Compound 2, CF3—OCF2—O—CF2—COONH4]	96%	12 h				
N.O=C(O)C(F)(F)OC(F)(F)OC(F)(F)OC(F)(F)F [Compound 3, CF3—OCF2—OCF2—OCF2—COONH4]	100%	12 h				
N.O=C(O)C(F)(F)OC(F)(F)C(F)(F)C(F)(F)OC(F)(F)F [Compound 4, CF3—(OCF2)3—OCF2—COONH4]	50%					
N.O=C(O)C(F)(F)OC(F)(F)C(F)(F)C(F)(F)F [Compound 5, C3F7—O—CF2—COONH4]	97%	11 h				
N.O=C(O)C(F)(F)C(F)(F)OC(F)(F)F [Compound 6, CF3—O—CF2—CF2—COONH4]	100%	11 h				
N.O=C(O)C(F)(F)C(F)(F)OC(F)(F)C(F)(F)F [Compound 7, C2F5—O—CF2—CF2—COONH4]	100%	10 h				
N.O=C(O)C(F)(F)C(F)(F)OC(F)(F)C(F)(F)C(F)(F)F [Compound 8, C3F7—O—CF2—CF2—COONH4]	82%	12 h				
N.O=C(O)C(F)(F)C(F)(F)OC(F)(F)C(F)(F)C(F)(F)C(F)(F)F [Compound 9, C4F9—O—CF2—CF2—COONH4]	42%	31 h	Hepatomegaly			
N.O=C(O)C(F)(F)OC(F)(F)C(F)(F)OC(F)(F)C(F)(F)F [Compound 10, C2F5—O—CF2—CF2—O—CF2—COONH4]	99%	10 h				
N.O=C(O)C(F)(F)C(F)OC(F)(F)C(F)(F)C(F)(F)OC(F)(F)F (centres unmarked) [Compound 11, CF3—O—CF2—CF2—CF2—O—CHF—CF2—COONH4]	84%	12 h				
N.O=C(O)C(F)OC(F)(F)C(F)(F)C(F)(F)OC(F)(F)F (centres unmarked) [Compound 12, CF3—O—CF2—CF2—CF2—O—CHF—COONH4]	95%	11 h				
N.O=C(O)C(F)(F)C(F)OC(F)(F)C(F)(F)C(F)(F)F (centres unmarked) [Compound 13, C3F7—O—CFH—CF2COONH4]	94%	11 h				
N.O=C(O)C(F)(F)C(F)(F)C(F)(F)C(F)(F)C(F)(F)OC(F)C(F)(F)F (centres unmarked) [Compound 14, CF3—CFH—O—(CF2)5—COONH4]	32%	24 h	Hepatomegaly			
N.O=C(O)C(F)(F)C(F)(F)C(F)(F)OC(F)C(F)(F)F (centres unmarked) [Compound 15, CF3—CFH—O—(CF2)3—COONH4]	95%	8 h				
N.O=C(O)COC(F)(F)C(F)OC(F)(F)C(F)(F)C(F)(F)F (centres unmarked) [Compound 16, C3F7—O—CFH—CF2—O—CH2—COONH4]				65* %	13* h	
N.O=C(O)C(F)(F)C(F)(F)C(F)(F)C(F)(F)C(F)(F)C(F)(F)C(F)(F)F [Compound C-1, C7F15COONH4, reference compound]	6%		Hepatomegaly			˜550 h
N.O=C(O)C(F)(F)OC(F)(F)C(F)(OC(F)(F)C(F)(F)C(F)(F)F)C(F)(F)F (centres unmarked) [Compound C-3, CF3CF2CF2OCF(CF3)CF2OCF2COONH4, reference compound]	5%	95 h	Hepatomegaly			
